{
  "source": "patent US20200225244A1",
  "about": "“COMPOSITIONS AND METHODS FOR ASSESSING PAINFUL DEMYELINATING AND NONDEMYELINATING DISEASES” (Sanford Burnham Prebys Medical Discovery Institute, priority 2017, published 2020)",
  "key": {"[1]": {"system": "female rats", "settings": "single intra-neural injection into intact sciatic nerve, Liu et al. 2012; cited from earlier work"}, "[2]": {"system": "gelatinolytic urinary MMPs", "settings": "20 mM EDTA; urine of CCI rats, day 0, 1 and 28", "procedure": "The urine samples collected at day 0 (prior to injury) and days 1 and 28 post-CCI (n=4-6/group) were equilibrated in MMP buffer, pH 7.5 and then the protein concentrations were determined using the Bradford assay and made even by sample dilution in MMP buffer, pH 7.5. Dialyzed urine samples were analyzed by gelatin zymography. […] The urine samples collected at day 0 (CTR) and 28 post-CCI (CCI) (n=4-5/group) were equilibrated in MMP buffer, pH 7.5, and then the protein concentrations were determined using the Bradford assay. Dialyzed urine samples were co-incubated with the fluorescent Mca-PLGL-Dpa-AR-NH2 MMP substrate in the presence and the absence of GM6001, a broad-spectrum hydroxamate MMP inhibitor.\nThe dialyzed rat urine samples equilibrated in MMP buffer, pH 7.5, the crude nerve extracts and the MMP-9 samples isolated from sciatic nerve were analyzed by gelatin zymography in a 10% acrylamide-0.1% gelatin gel. […] Where indicated, gels were incubated in 20 mM EDTA to inactivate MMP activity."}, "[3]": {"target": "T1, α2δ1 subunit of the voltage-gated Ca^2+ channel (Homo sapiens, UniProt P54289)", "T1 construct": "PD-217,014 produces visceral analgesic effects in animal studies", "T1 sequence (P54289 25-1103)": "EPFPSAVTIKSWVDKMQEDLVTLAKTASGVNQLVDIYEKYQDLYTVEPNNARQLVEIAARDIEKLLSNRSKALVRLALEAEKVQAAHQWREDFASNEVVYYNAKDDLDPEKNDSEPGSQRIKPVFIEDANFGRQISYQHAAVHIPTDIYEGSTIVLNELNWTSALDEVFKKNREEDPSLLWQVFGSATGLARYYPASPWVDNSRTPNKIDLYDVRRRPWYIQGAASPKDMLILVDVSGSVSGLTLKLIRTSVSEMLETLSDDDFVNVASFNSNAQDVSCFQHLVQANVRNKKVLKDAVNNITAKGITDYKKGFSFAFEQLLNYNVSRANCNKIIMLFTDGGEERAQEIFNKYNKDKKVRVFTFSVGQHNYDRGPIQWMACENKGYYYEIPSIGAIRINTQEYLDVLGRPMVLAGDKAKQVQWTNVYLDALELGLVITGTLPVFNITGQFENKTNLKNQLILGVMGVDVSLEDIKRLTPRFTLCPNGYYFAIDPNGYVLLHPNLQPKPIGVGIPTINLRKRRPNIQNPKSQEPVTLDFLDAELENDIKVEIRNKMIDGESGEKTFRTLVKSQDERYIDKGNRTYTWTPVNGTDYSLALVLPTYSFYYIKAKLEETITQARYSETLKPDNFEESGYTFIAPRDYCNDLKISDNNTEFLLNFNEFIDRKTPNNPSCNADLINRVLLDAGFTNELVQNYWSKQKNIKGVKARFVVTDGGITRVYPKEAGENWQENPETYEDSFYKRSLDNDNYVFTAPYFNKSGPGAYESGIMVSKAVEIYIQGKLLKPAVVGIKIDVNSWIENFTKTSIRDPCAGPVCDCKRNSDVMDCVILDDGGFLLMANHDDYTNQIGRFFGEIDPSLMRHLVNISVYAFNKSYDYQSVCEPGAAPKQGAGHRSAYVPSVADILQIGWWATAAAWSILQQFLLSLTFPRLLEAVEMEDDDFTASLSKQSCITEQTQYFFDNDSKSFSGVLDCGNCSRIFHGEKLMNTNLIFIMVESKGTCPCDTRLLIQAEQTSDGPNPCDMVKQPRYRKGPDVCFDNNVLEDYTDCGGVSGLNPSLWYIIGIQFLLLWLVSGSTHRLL", "T1 sequence (P54289 957-1103)": "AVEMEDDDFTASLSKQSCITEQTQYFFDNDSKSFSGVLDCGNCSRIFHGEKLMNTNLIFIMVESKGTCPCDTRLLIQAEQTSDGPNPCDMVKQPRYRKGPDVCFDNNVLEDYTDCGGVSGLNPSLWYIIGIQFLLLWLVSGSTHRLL", "settings": "animal studies; Ohashi et al. 2008; cited from earlier work"}},
  "data": [
    {"compound": "ENPVVHFFKNIVTPRTPPPSQ (synthetic wild-type (MBP84-104-WT)) [synthetic algesic myelin basic protein-derived peptide, region 84-104 of human MBP]", "values": [
      {"measurement": "mechanical allodynia after injection", "setting": "[1]", "result": "causes a robust and long-lasting mechanical allodynia"}
    ]},
    {"compound": "O=C(O)CN(CCN(CC(=O)O)CC(=O)O)CC(=O)O", "note": "[EDTA]", "values": [
      {"measurement": "effect on MMP-related gelatinolytic bands", "setting": "[2]", "result": "repressed all of the MMP-related gelatinolytic bands"}
    ]},
    {"compound": "NC[C@@]1(CC(=O)O)C[C@H]2CC[C@H]2C1", "note": "[PD-217,014]", "values": [
      {"measurement": "visceral analgesic effects, potency and efficacy compared with gabapentin", "setting": "[3]", "result": "higher potency and efficacy than gabapentin"}
    ]}
  ]
}
